Assay [1] in a line: Luminescence Cell-Based Dose Response HTS to Identify Inhibitors of 5'UTR Stem-Loop Driven Prion Protein mRNA Translation in H4 Neuroglioblastoma Cells. [Related pubchem assays: 1827 (Project Summary), 1813 (Primary HTS)]. The assay is classed as functional.
A further assay relates to HEK293. Put plainly: cells. It is filed as functional, cell-based. As to conditions: Homo sapiens.
The next assay has as its target SRSF protein kinase 1 (Homo sapiens, UniProt Q96SB4). It is filed as functional.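 Also: measured as one member of a kinome-wide kinase profiling panel.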
Assay [2] addresses Macrophage-stimulating protein receptor (Homo sapiens, UniProt Q04912). Put plainly: Navigating the Kinome. Panel member name: MST1R. It is filed as functional.
Assay [3] has as its target Casein kinase II subunit alpha (Homo sapiens, UniProt P68400). It is filed as functional.
Assay [4] addresses Calcium/calmodulin-dependent protein kinase type 1 (Homo sapiens, UniProt Q14012). The assay is classed as functional.
Assay [5] has as its target Dual specificity tyrosine-phosphorylation-regulated kinase 1B (Homo sapiens, UniProt Q9Y463). Kind of assay: Navigating the Kinome. Panel member name: DYRK1B. It is filed as functional.
The target of assay [6] is Testis-specific serine/threonine-protein kinase 1 (Homo sapiens, UniProt Q9BXA7). The assay is classed as functional.
Chain of Testis-specific serine/threonine-protein kinase 1 (Q9BXA7 whole entry): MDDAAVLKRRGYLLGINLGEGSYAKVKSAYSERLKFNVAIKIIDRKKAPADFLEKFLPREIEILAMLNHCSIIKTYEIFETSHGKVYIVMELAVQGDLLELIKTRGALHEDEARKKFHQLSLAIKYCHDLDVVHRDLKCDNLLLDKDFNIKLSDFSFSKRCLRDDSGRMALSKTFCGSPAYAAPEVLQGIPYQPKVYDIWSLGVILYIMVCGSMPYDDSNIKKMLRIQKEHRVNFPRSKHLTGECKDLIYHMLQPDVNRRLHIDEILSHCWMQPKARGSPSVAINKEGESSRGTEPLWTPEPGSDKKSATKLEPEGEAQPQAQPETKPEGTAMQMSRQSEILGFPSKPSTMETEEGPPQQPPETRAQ
Assay [7] has as its target Death-associated protein kinase 3 (Homo sapiens, UniProt O43293). It is filed as functional.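 Also: measured as one member of a kinome-wide profiling panel.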
Assay [8] addresses Calcium/calmodulin-dependent protein kinase type II subunit beta (Homo sapiens, UniProt Q13554). It is filed as functional.
In assay [9] the target is Protein-tyrosine kinase 6 (Homo sapiens, UniProt Q13882). The assay is classed as functional.
In assay [10] the target is Non-receptor tyrosine-protein kinase TYK2 (Homo sapiens, UniProt P29597). It is filed as functional.
In assay [11] the target is Glycogen synthase kinase-3 alpha (Homo sapiens, UniProt P49840). It is filed as functional.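 Also: GSK3A result taken from a broad kinome-wide kinase panel.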
Assay [12] concerns the target Serine/threonine-protein kinase TBK1 (Homo sapiens, UniProt Q9UHD2). Kind of assay: Navigating the Kinome. Panel member name: TBK1. The assay is classed as functional.
For assay [13], the target named is Tyrosine-protein kinase JAK3 (Homo sapiens, UniProt P52333). It is filed as functional.
The target in assay [14] is Dual specificity protein kinase CLK4 (Homo sapiens, UniProt Q9HAZ1). The assay is classed as functional.
Assay [15] deals with Mitogen-activated protein kinase 1 (Homo sapiens, UniProt P28482). The assay is classed as functional.
Assay [16] has as its target Macrophage colony-stimulating factor 1 receptor (Homo sapiens, UniProt P07333). It is filed as functional.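 Also: value comes from the Navigating the Kinome screening panel, CSF1R member.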
In assay [17] the target is Protein kinase C zeta type (Homo sapiens, UniProt Q05513). It is filed as functional.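 Also: measured as one member of a broad kinase profiling panel.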
For assay [18], the target named is Tyrosine-protein kinase receptor TYRO3 (Homo sapiens, UniProt Q06418). It is filed as functional.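 Also: TYRO3 value obtained as one member of a kinome-wide profiling panel.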
Chain of Tyrosine-protein kinase receptor TYRO3 (Q06418 whole entry): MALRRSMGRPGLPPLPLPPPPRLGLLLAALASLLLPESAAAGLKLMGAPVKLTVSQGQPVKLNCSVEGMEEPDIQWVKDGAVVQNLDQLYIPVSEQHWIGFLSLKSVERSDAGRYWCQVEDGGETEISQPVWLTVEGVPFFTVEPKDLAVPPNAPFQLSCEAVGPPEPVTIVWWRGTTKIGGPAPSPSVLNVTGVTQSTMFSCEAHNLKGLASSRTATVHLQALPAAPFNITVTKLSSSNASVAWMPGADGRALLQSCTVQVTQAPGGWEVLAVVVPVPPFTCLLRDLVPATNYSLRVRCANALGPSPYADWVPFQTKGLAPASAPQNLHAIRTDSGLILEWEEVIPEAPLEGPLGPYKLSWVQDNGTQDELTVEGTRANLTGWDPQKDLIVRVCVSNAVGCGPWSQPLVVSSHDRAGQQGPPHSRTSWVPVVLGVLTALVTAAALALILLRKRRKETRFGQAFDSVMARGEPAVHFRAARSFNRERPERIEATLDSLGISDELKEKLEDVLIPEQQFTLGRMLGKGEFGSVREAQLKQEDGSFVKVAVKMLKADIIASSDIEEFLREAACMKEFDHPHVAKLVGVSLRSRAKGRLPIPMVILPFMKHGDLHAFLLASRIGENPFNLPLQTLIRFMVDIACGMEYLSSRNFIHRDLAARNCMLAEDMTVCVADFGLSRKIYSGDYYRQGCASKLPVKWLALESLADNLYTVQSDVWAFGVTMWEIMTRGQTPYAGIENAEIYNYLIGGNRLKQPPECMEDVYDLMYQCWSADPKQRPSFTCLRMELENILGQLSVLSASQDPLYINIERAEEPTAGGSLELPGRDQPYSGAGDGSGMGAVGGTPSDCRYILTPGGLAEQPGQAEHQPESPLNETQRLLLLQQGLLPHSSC
For assay [19], the target named is MAP kinase-activated protein kinase 3 (Homo sapiens, UniProt Q16644). The assay is classed as functional.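 Also: value comes from a kinome-wide profiling panel in which MAPKAPK3 is one of the panel members.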
The target of assay [20] is Calcium/calmodulin-dependent protein kinase type II subunit alpha (Homo sapiens, UniProt Q9UQM7). Kind of assay: Navigating the Kinome. Panel member name: CAMK2A. It is filed as functional.
The target of assay [21] is STE20-like serine/threonine-protein kinase (Homo sapiens, UniProt Q9H2G2). The assay is classed as functional.
The target in assay [22] is Homeodomain-interacting protein kinase 4 (Homo sapiens, UniProt Q8NE63). It is filed as functional.
The target in assay [23] is Fibroblast growth factor receptor 1 (Homo sapiens, UniProt P11362). It is filed as functional.
Assay [24] concerns the target Leukocyte tyrosine kinase receptor (Homo sapiens, UniProt P29376). Put plainly: Navigating the Kinome. Panel member name: LTK. The assay is classed as functional.
A further assay deals with Misshapen-like kinase 1 (Homo sapiens, UniProt Q8N4C8). It is filed as functional.
Chain of Misshapen-like kinase 1 (Q8N4C8 whole entry): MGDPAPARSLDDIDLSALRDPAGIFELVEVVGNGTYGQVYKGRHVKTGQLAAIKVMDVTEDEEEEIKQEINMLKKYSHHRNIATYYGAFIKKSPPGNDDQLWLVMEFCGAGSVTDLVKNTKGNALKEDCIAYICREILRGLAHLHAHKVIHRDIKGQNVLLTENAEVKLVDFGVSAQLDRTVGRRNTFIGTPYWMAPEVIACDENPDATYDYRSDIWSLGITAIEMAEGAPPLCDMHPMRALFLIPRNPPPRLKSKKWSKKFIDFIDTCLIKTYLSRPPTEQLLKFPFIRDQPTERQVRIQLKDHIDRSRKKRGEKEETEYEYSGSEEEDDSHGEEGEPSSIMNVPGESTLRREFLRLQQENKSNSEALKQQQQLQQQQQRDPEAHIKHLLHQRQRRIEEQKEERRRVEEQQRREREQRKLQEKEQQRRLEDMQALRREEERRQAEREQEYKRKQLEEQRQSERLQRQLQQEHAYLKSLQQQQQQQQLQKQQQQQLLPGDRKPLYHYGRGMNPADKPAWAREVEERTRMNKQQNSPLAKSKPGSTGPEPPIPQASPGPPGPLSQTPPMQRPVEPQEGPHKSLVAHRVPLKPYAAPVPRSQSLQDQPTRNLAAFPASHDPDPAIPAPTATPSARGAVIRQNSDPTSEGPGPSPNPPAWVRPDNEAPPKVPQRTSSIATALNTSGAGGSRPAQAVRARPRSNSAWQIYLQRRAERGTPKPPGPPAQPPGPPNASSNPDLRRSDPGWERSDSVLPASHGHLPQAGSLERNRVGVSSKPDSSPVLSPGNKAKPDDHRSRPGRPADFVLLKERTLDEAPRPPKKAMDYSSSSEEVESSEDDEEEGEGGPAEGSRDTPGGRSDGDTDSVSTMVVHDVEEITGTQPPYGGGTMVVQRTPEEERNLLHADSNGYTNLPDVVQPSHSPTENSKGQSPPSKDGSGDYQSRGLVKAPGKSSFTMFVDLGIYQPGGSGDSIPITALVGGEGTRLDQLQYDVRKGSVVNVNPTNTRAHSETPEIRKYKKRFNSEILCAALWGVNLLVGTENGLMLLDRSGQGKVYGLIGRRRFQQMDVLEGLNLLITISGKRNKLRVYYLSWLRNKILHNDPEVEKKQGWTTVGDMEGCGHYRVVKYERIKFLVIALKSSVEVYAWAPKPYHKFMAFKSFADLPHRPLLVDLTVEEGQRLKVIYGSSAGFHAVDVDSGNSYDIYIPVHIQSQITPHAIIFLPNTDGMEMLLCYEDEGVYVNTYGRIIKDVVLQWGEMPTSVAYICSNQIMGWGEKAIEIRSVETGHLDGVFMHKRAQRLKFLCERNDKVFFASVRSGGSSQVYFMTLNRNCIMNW
Assay [25] has as its target MAP kinase-activated protein kinase 2 (Homo sapiens, UniProt P49137). The assay is classed as functional.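 Also: measured as one member of a kinome-wide kinase panel.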
For assay [26], the target named is Dual specificity tyrosine-phosphorylation-regulated kinase 4 (Homo sapiens, UniProt Q9NR20). It is filed as functional.
A further assay addresses Ephrin type-A receptor 2 (Homo sapiens, UniProt P29317). It is filed as functional.
In assay [27] the target is Proto-oncogene tyrosine-protein kinase Src (Homo sapiens, UniProt P12931). The assay is classed as functional.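 Also: SRC entry within a kinome-wide kinase profiling panel.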
Assay [28] has as its target Serine/threonine-protein kinase pim-2 (Homo sapiens, UniProt Q9P1W9). The assay is classed as functional.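 Also: value comes from a broad kinase panel profiling study in which PIM2 was one of the panel members.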
Assay [29] deals with Ribosomal protein S6 kinase alpha-5 (Homo sapiens, UniProt O75582). It is filed as functional.
Assay [30] addresses Tyrosine-protein kinase Fyn (Homo sapiens, UniProt P06241). It is filed as functional.
Assay [31] has as its target RAC-gamma serine/threonine-protein kinase (Homo sapiens, UniProt Q9Y243). It is filed as functional.
A short description of assay [32]: glucagon-like peptide-1 release potency in STC-1, concentration-response, half-maximal inhibitory concentration in the STC-1 line (AID 1117345). It is filed as functional, cell-based.
The next assay deals with T1, Leucine aminopeptidase (Plasmodium falciparum 3D7, UniProt Q8IL11).
T1 sequence (Q8IL11 whole entry): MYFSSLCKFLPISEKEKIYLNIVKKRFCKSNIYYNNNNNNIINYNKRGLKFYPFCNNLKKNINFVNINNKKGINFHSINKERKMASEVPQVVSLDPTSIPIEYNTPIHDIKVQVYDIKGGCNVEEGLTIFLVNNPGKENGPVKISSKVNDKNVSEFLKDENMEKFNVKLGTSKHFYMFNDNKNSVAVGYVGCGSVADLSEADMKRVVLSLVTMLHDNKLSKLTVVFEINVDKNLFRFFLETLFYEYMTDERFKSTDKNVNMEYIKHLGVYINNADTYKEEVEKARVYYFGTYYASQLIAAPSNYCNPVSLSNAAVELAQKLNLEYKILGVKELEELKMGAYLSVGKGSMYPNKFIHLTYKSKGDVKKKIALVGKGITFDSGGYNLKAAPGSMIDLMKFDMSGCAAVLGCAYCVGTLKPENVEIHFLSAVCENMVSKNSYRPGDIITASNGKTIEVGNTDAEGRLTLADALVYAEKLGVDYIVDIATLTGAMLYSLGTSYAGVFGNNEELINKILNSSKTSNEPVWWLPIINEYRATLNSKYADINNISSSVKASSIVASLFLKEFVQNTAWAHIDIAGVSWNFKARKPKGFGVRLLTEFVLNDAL
Kind of assay: P. falciparum M17LAP inhibitors, primary screen, biochemical, fluorogenic H-Leu-NHMec substrate, 1536-well (AID 1619). It is filed as functional.

A short description of assay [33]: cytotoxicity toward HCT116 cells – cell-based, CellTiter-Glo luminescence, IC50, dose response (AID 1117332). It is filed as functional. As to conditions: HCT-116. For orientation: In ATP-based viability assays light output follows the ATP content of the culture.

The source made the active and inactive calls.

Chain of Calcium/calmodulin-dependent protein kinase type II subunit beta (Q13554 whole entry): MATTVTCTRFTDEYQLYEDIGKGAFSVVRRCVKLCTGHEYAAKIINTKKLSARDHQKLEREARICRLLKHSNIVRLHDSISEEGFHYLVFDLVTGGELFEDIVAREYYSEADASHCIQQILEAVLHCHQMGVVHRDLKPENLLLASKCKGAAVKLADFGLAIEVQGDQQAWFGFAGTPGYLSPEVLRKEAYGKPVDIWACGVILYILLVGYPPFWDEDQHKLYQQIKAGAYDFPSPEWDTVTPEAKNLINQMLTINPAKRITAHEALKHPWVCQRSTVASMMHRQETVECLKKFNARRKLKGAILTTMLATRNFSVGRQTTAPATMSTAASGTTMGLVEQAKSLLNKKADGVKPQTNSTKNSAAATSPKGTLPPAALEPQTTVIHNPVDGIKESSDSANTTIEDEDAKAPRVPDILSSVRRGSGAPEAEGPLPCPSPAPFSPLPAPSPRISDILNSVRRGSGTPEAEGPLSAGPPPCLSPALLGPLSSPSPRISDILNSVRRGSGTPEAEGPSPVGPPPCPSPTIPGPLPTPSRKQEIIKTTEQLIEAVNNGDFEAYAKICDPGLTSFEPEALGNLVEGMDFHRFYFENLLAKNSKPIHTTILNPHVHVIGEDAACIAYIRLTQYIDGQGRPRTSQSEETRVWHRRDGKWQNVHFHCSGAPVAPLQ
Chain of Tyrosine-protein kinase Fyn (P06241 whole entry): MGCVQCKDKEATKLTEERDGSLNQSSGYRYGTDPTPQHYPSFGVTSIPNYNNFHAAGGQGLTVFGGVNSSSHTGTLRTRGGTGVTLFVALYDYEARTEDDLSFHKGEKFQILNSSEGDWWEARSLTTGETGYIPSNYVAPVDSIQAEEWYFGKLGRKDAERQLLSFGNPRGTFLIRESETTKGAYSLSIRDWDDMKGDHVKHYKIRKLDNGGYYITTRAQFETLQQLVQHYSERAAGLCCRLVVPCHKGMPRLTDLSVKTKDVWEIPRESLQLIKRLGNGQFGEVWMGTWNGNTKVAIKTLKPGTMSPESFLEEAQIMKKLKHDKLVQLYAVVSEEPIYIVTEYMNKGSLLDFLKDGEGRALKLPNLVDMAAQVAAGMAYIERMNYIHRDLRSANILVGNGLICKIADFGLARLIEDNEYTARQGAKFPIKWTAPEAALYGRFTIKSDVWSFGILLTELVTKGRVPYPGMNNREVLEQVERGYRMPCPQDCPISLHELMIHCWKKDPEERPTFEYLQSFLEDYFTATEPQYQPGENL
Chain of SRSF protein kinase 1 (Q96SB4 whole entry): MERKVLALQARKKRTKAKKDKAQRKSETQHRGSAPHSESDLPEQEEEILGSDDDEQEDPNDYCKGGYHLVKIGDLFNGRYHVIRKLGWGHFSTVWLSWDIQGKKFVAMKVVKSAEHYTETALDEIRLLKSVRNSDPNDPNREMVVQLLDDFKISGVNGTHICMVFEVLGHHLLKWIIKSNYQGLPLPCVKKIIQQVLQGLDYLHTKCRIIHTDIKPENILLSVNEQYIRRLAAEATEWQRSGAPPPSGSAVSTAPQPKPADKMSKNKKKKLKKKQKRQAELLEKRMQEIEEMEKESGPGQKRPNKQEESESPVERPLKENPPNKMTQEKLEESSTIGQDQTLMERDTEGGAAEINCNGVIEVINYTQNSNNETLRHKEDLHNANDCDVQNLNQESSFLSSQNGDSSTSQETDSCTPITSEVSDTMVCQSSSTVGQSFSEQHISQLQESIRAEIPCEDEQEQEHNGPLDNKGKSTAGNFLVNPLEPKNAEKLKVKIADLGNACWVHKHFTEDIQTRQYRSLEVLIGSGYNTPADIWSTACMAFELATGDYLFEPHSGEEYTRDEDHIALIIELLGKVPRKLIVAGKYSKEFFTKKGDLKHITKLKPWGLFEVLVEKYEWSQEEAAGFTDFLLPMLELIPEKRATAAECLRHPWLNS
Chain of Calcium/calmodulin-dependent protein kinase type 1 (Q14012 whole entry): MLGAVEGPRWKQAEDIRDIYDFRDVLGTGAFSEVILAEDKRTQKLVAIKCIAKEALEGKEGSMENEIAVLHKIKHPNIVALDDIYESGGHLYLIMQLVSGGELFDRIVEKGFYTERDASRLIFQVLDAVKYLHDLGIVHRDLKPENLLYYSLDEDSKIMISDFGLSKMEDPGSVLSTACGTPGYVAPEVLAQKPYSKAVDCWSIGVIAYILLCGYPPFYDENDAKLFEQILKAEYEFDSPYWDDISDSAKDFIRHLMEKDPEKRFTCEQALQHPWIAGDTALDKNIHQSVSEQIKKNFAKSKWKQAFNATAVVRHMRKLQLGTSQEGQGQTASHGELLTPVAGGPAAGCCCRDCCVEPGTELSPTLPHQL

Take `O=C1C=C(N2CCOCC2)c2ccccc2C1=O`: the EC50 in assay [1] is recorded as > 120 µM (not active). Also, in the assay with HEK293, the 50% inhibitory concentration (IC50) was 13.6 µM (active).

For `N#Cc1ccc2[nH]c(O)c(-c3ccc(CN4CCOCC4)cn3)c2c1` [AZD-1080], the Ki at SRSF protein kinase 1 is > 7.94 µM (inactive); in [2] it was > 3.98 µM (inactive); in assay [3], > 6.31 µM (inactive); in assay [4], > 6.31 µM (inactive); in [5], 1 µM (active); in assay [6], > 1.58 µM (inactive). The Ki in assay [7] is > 3.98 µM (inactive); in assay [8], > 7.94 µM (inactive); in assay [9], > 2.51 µM (inactive); in assay [10], > 2 µM (inactive); in [11] it was > 2.51 µM (inactive); in assay [12] it was > 3.16 µM (inactive). Moreover, the Ki was > 3.98 µM (inactive) in assay [13]; 2.51 µM (active) in assay [14]; > 7.94 µM (inactive) in assay [15]; > 2.51 µM (inactive) in [16]; > 7.94 µM (inactive) in [17]; > 2.51 µM (inactive) in [18]. Besides, the Ki in [19] was > 10 µM (inactive); in assay [20], 6.31 µM (active); in assay [21], > 10 µM (inactive); in assay [22], > 7.94 µM (inactive); in assay [23] it was > 3.98 µM (inactive); in [24] it was > 2.51 µM (inactive). Besides, the inhibitory constant (Ki) on Misshapen-like kinase 1 was 6.31 µM (active); in assay [25] it was > 7.94 µM (inactive); in [26], > 7.94 µM (inactive); on Ephrin type-A receptor 2, > 3.16 µM (inactive); in [27], > 2 µM (inactive); in assay [28], > 1.58 µM (inactive). Moreover, the Ki in assay [29] is > 2 µM (inactive); in [30], > 3.98 µM (inactive); in assay [31], > 10 µM (inactive).

As for `CCc1oc2ccccc2c1C(=O)c1cc(Br)c(O)c(Br)c1` [BENZBROMARONE], the IC50 in assay [32] was > 40 µM (inactive); on Leucine aminopeptidase it was 81.9 µM (active); in assay [33], 1.06 µM (active).

As usually defined, the EC50 is the concentration that produces a half-maximal response. Higher therefore signals weaker potency. Usually IC50 stands for the concentration that inhibits the measured activity by half. The term Ki denotes the dissociation constant of the complex between target and ligand, obtained from inhibition or displacement.

Values taken from ChEMBL document CHEMBL1201862, “PubChem BioAssay data set” (2004).
